Measurements reported in patent publication US10034886B2, “GLP-1 receptor modulators” (Celgene International II SÀRL, priority 2014, dated 2018).
Like-named read-outs stand apart in the source and are kept apart here.

Molecular target: T1, GLP-1R (Homo sapiens, UniProt P43220)
T1 construct: host or cells: GLP-1R CRE-bla CHO-K1 cells
Assay: EC20 GLP-1(9-36) PAM cAMP assay: dose response of compound in the presence of fixed concentration of GLP-1(9-36)
Type: cell-based
Details: GLP-1R CRE-bla CHO-K1 cells, read-out: EC20 GLP-1(9-36) PAM EC50
Procedure, shortened: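 Positive allosteric modulation read as cAMP accumulation: compound titrations (12 points) combined with an EC20 level of GLP-1(9-36) on CHO-K1 GLP-1R CRE-bla cells, IBMX present, 30 min, 37 °C, pH 7.4 buffer. Luminescence converted to cAMP via standards; non-linear fit gave EC50 and Emax.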

[1] = dose response of compound in presence of fixed concentration of GLP-1(9-36)
[2] = compound dose response with fixed concentration of GLP-1(9-36)

T1 sequence (P43220 24-463): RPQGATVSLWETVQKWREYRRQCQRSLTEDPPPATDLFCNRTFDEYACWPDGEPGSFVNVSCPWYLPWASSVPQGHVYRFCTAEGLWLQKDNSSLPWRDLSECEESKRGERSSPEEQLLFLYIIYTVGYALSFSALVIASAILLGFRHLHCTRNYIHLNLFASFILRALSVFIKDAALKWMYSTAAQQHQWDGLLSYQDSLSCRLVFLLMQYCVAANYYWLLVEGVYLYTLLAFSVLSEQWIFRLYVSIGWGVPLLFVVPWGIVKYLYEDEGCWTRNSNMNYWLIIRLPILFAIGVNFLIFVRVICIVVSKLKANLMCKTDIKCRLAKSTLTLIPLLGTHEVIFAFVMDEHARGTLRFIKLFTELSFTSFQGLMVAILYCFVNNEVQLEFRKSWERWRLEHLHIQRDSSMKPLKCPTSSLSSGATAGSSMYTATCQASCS
T1 sequence (P01275 100-127 partner limits assumed): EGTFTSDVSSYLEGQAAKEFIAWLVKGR

COc1ccc(-c2cnc(-c3ccc(C[C@H](NC(=O)c4ccc(C(C)(C)C)cc4)C(=O)N[C@H](C)C(=O)O)cc3)nc2)cc1 [Compound 800]
EC50 [1]: 5000 to 10000 nM

CC(C)(C)COc1ccc(-c2cnc(-c3ccc(C[C@H](NC(=O)c4ccc(C(C)(C)C)s4)C(=O)N4CC[C@H](C(=O)O)C4)cc3)nc2)cc1 [Compound 767]
EC50 [1]: 2500 to 5000 nM

C[C@@H](NC(=O)[C@H](Cc1ccc(-c2ncc(-c3cc(O)cc(OC(F)(F)F)c3)cn2)cc1)NC(=O)c1ccc(C(C)(C)C)s1)C(=O)O [Compound 1020]
EC50 [1]: 5000 to 10000 nM

CCCCCCCOc1ccc(-c2cnc(-c3ccc(C[C@H](NC(=O)c4ccc(CC)cn4)C(=O)N4CC[C@H](C(=O)O)C4)cc3)nc2)cc1 [Compound 1098]
EC50 [1]: 2500 to 5000 nM

CCCc1ccc(C2CCN(c3cnc(-c4ccc(C[C@H](NC(=O)c5ccc(C(C)(C)C)s5)C(=O)N5CC(C(=O)O)C5)cc4)nc3)CC2)cn1 [Compound 1498]
EC50 [2]: 800 to 2500 nM

CCCCCCCOc1ccc(-c2cnc(-c3ccc(C[C@H](NC(=O)c4ccc(CC)s4)C(=O)N4CCC[C@H]4C(=O)O)cc3)nc2)cc1 [Compound 1072]
EC50 [1]: 800 to 2500 nM

CCCCCOc1ccc(-c2cnc(-c3ccc(C[C@H](NC(=O)c4ccc(C(C)(C)C)s4)C(=O)N[C@H](C)C(=O)O)cc3)nc2)cc1 [Compound 734]
EC50 [1]: 800 to 2500 nM

CCCCCCCOc1ccc(-c2cnc(-c3ccc(C[C@H](NC(=O)/C=C/C(C)(C)C)C(=O)NC(C(=O)O)C(O)c4ccccc4)cc3)nc2)cc1 (some centres unmarked) [Compound 955]
EC50 [1]: 5000 to 10000 nM

CCOc1ccc(-c2cnc(-c3ccc(C[C@H](NC(=O)c4ccc(C(C)(C)C)cc4)C(=O)N[C@H](C)C(=O)O)cc3)nc2)cc1 [Compound 721]
EC50 [1]: 800 to 2500 nM

CCCCCCCOc1ccc(-c2cnc(-c3ccc(C[C@H](NC(=O)c4ccc(C(C)(C)C)s4)C(=O)N4CC[C@@H](N)C4)cc3)nc2)cc1 [Compound 987]
EC50 [1]: 5000 to 10000 nM

CCCCCCCOc1ccc(-c2cnc(-c3ccc(C[C@H](NC(=O)c4ccc(OCCC)cc4)C(=O)N4CCC[C@H]4C(=O)O)cc3)nc2)cc1 [Compound 1071]
EC50 [1]: 2500 to 5000 nM

CCCCCCCOc1ccc(-c2cnc(-c3ccc(C[C@H](NC(=O)c4ccc(CC(C)C)s4)C(=O)N[C@H](C)C(=O)O)cc3)nc2)cc1 [Compound 813]
EC50 [1]: 800 to 2500 nM

CCCCCCCOc1ccc(-c2cnc(-c3ccc(C[C@H](NC(=O)c4ccc(OC(C)C)cc4)C(=O)N4CC[C@H](C(=O)O)C4)cc3)nc2)cc1 [Compound 849]
EC50 [1]: 2500 to 5000 nM

CCCCCCCOc1ccc(-c2cnc(-c3ccc(C[C@H](NC(=O)c4ccc(C(C)(C)C)s4)C(=O)NC(C(=O)O)C(O)c4ccc(C#N)cc4)cc3)nc2)cc1 (some centres unmarked) [Compound 911]
EC50 [1]: 800 to 2500 nM

CCCCCCCOc1ccc(-c2cnc(-c3ccc(C[C@H](NC(=O)c4ccc(C(C)(C)C)s4)C(=O)NCC(=O)NCC(=O)O)cc3)nc2)cc1 [Compound 486]
EC50 [1]: < 800 nM

CCCCCCCOc1ccc(-c2cnc(-c3ccc(C[C@H](NC(=O)c4ccc(C(C)(C)C)cc4)C(=O)N[C@@H](CC(=O)N[C@@H](C)C(=O)O)C(=O)O)cc3)nc2)cc1 [Compound 483]
EC50 [1]: 800 to 2500 nM

CCCCCCCOc1ccc(-c2cnc(-c3ccc(C[C@H](NC(=O)c4ccc(C(C)(C)C)s4)C(=O)NCCN)cc3)nc2)cc1 [Compound 384]
EC50 [1]: 5000 to 10000 nM

CCC[C@H]1CC[C@H](C2CCN(c3cnc(-c4ccc(C[C@H](NC(=O)c5ccc(C(C)(C)C)s5)C(=O)NS(C)(=O)=O)cc4)nc3)CC2)CC1 [Compound 1438, 5-(tert-butyl)-N—((S)-1-(methylsulfonamido)-1-oxo-3-(4-(5-(4-((1s,4r)-4-propylcyclohexyl)piperidin-1-yl)pyrimidin-2-yl)phenyl)propan-2-yl)thiophene-2-carboxamide]
EC50 [2]: < 800 nM

CCCCCCCOc1ccc(-c2cnc(-c3ccc(C[C@H](NC(=O)c4ccc(C(C)(C)C)s4)C(=O)NC(C(=O)O)C(O)C(F)(F)F)cc3)nc2)cc1 (some centres unmarked) [Compound 882]
EC50 [1]: 800 to 2500 nM

CC[C@H]1CC[C@H](c2ccc(-c3cnc(-c4ccc(C[C@H](NC(=O)c5ccc(C(C)(C)C)s5)C(=O)NCC(=O)O)cc4)nc3)cc2)CC1 [Compound 1323]
EC50 [2]: < 800 nM

CCC[C@H]1CC[C@H](C2CCN(c3cnc(-c4ccc(C[C@H](NC(=O)c5ccc(CC(C)C)s5)C(=O)N5CC(C(=O)O)C5)cc4)nc3)CC2)CC1 [Compound 1522]
EC50 [2]: < 800 nM

CCC(C)COc1ccc(-c2cnc(-c3ccc(C[C@H](NC(=O)c4ccc(C(C)(C)C)s4)C(=O)N4CC(C(=O)O)C4)cc3)nc2)cc1 (some centres unmarked) [Compound 797]
EC50 [1]: 800 to 2500 nM

CC(C)(C)c1ccc(C(=O)N[C@@H](Cc2ccc(-c3ncc(N4CCC(c5ccccc5Cl)CC4)cn3)cc2)C(=O)N2CC(C(=O)O)C2)s1 [Compound 1480]
EC50 [2]: 800 to 2500 nM

CCCCCCCOc1ccc(-c2cnc(-c3ccc(C[C@H](NC(=O)c4ccc(C(C)(C)C)cc4)C(=O)N[C@H](CN)C(=O)O)cc3)nc2)cc1 [Compound 465]
EC50 [1]: 800 to 2500 nM

CCCCCCCOc1ccc(-c2cnc(-c3ccc(C[C@H](NC(=O)c4ccc(C(C)(C)C)s4)C(=O)NC(C(=O)O)C(O)c4cccc(Cl)c4)cc3)nc2)cc1 (some centres unmarked) [Compound 902]
EC50 [1]: 2500 to 5000 nM

CCCCCCCOc1ccc(-c2cnc(-c3ccc(C[C@H](NC(=O)c4ccc(C(C)(C)C)s4)C(=O)N[C@@H](C(=O)O)[C@@H](C)CC)cc3)nc2)cc1 [Compound 656]
EC50 [1]: 800 to 2500 nM

CCCCCCCOc1ccc(-c2cnc(-c3ccc(C[C@H](NC(=O)c4ccc(C(C)(C)C)cc4)C(=O)N[C@@H](CC(=O)NCC(=O)O)C(=O)O)cc3)nc2)cc1 [Compound 480]
EC50 [1]: 800 to 2500 nM

CCCc1ccc(C(=O)N[C@@H](Cc2ccc(-c3ncc(-c4ccc([C@H]5CC[C@H](CC)CC5)cc4)cn3)cc2)C(=O)O)cc1 [Compound 1372]
EC50 [2]: 800 to 2500 nM

C[C@@H](NC(=O)[C@H](Cc1ccc(-c2ncc(-c3ccc(-c4ccc(C(F)(F)F)cc4F)cc3)cn2)cc1)NC(=O)c1ccc(C(C)(C)C)s1)C(=O)O [Compound 1147]
EC50 [1]: < 800 nM

CCCOc1ccc(-c2cnc(-c3ccc(C[C@H](NC(=O)c4ccc(C(C)(C)C)s4)C(=O)NC(C(=O)O)C(O)c4ccccc4)cc3)nc2)cc1 (some centres unmarked) [Compound 933]
EC50 [1]: 5000 to 10000 nM

C[C@@H](NC(=O)[C@H](Cc1ccc(-c2ncc(/C=C\c3ccccc3)cn2)cc1)NC(=O)c1ccc(C(C)(C)C)s1)C(=O)O [Compound 1050]
EC50 [1]: 800 to 2500 nM

CCCCCCCOc1ccc(-c2cnc(-c3ccc(C[C@H](NC(=O)c4ccc(OCC)cc4)C(=O)N4CC(C(=O)O)C4)cc3)nc2)cc1 [Compound 1114]
EC50 [1]: 800 to 2500 nM

CCCCCCCOc1ccc(-c2cnc(-c3ccc(C[C@H](NC(=O)c4ccc(C(C)(C)C)s4)C(=O)NC(C(=O)O)C(O)c4cscn4)cc3)nc2)cc1 (some centres unmarked) [Compound 903]
EC50 [1]: 5000 to 10000 nM

CCC[C@H]1CC[C@H](C2CCN(c3cnc(-c4ccc(C[C@H](NC(=O)c5ccc(C(C)(C)C)s5)C(=O)N5CC(OC)(C(=O)O)C5)cc4)nc3)CC2)CC1 [Compound 1452]
EC50 [2]: < 800 nM

CC(C)(C)c1ccc(C(=O)N[C@@H](Cc2ccc(-c3ncc(-c4ccc([C@H]5CC[C@H](C)CC5)cc4)cn3)cc2)C(=O)N2CC(C(=O)O)C2)s1 [Compound 1176]
EC50 [1]: < 800 nM

CCCCCCCOc1ccc(-c2cnc(-c3ccc(C[C@H](NC(=O)c4ccn(C(C)(C)C)c4)C(=O)N[C@H](C)C(=O)O)cc3)nc2)cc1 [Compound 838]
EC50 [1]: 800 to 2500 nM

CCCc1ccc(-c2ccc(-c3cnc(-c4ccc(C[C@H](NC(=O)c5ccc(CC(C)C)cc5)C(=O)N5CC(C(=O)O)C5)cc4)nc3)c(F)c2)cc1 [Compound 1407]
EC50 [2]: < 800 nM

CCCCCCCOc1ccc(-c2cnc(-c3ccc(C[C@H](NC(=O)c4ccc(C(C)(C)C)cc4)C(=O)NC(CCC)C(=O)O)cc3)nc2)cc1 (some centres unmarked) [Compound 562]
EC50 [1]: < 800 nM

CCCCCCCOc1ccc(-c2cnc(-c3ccc(C[C@H](NC(=O)c4ccc(C(C)(C)C)cc4)C(=O)N4CC[C@@H](C(=O)O)C4)cc3)nc2)cc1 [Compound 588]
EC50 [1]: 800 to 2500 nM

CCCCCCCOc1ccc(-c2cnc(-c3ccc(C[C@H](NC(=O)c4ccc(C(C)(C)C)s4)C(=O)N4CCC(CC(=O)O)C4)cc3)nc2)cc1 (some centres unmarked) [Compound 613]
EC50 [1]: 800 to 2500 nM

CCC[C@H]1CC[C@H](C2CCN(c3cnc(-c4ccc(C[C@H](NC(=O)c5ccc(C(C)(C)C)s5)C(=O)NCC(=O)O)cc4)nc3)CC2)CC1 [Compound 1461]
EC50 [2]: < 800 nM

CCCCCCOc1ccc(-c2cnc(-c3ccc(C[C@H](NC(=O)c4ccc(C(C)(C)C)cc4)C(=O)N[C@H](C)C(=O)O)cc3)nc2)cc1 [Compound 719]
EC50 [1]: 800 to 2500 nM

CCc1ccc(/C=C/c2cnc(-c3ccc(C[C@H](NC(=O)c4ccc(C(C)(C)C)s4)C(=O)N4CCC[C@H]4C(=O)O)cc3)nc2)cc1 [Compound 1126]
EC50 [1]: 800 to 2500 nM

CCCCCCCOc1ccc(-c2cnc(-c3ccc(C[C@H](NC(=O)c4ccc(C(C)C)cc4)C(=O)N4CC(C(=O)O)C4)cc3)nc2)cc1 [Compound 1113]
EC50 [1]: 800 to 2500 nM

CCCCCCCOc1ccc(-c2cnc(-c3ccc(C[C@H](NC(=O)c4ccc(C(C)(C)C)s4)C(=O)N[C@@H](CC(=O)N[C@@H](C)C(=O)O)C(=O)O)cc3)nc2)cc1 [Compound 516]
EC50 [1]: < 800 nM

CCCCCCCOc1ccc(-c2cnc(-c3ccc(C[C@H](NC(=O)c4ccc(C(C)(C)C)s4)C(=O)N4CCCNCC4)cc3)nc2)cc1 [Compound 966]
EC50 [1]: 5000 to 10000 nM

CCCCCCCOc1ccc(-c2cnc(-c3ccc(C[C@H](NC(=O)c4ccc(C(C)(C)C)s4)C(=O)NC[C@@H](CO)C(=O)O)cc3)nc2)cc1 [Compound 461]
EC50 [1]: 800 to 2500 nM

Cc1ccc(-c2ccc(-c3cnc(-c4ccc(C[C@H](NC(=O)c5ccc(C(C)(C)C)s5)C(=O)N[C@H](C)C(=O)O)cc4)nc3)cc2)c(F)c1 [Compound 1148]
EC50 [1]: < 800 nM

CC(C)(C)c1ccc(C(=O)N[C@@H](Cc2ccc(-c3ncc(-c4nc(CC5CCCCC5)no4)cn3)cc2)C(=O)NCCC(=O)O)cc1 [Compound 747]
EC50 [1]: 2500 to 5000 nM

CCCCCCCOc1ccc(-c2cnc(-c3ccc(C[C@H](NC(=O)c4ccc(C(C)(C)C)s4)C(=O)N4CCC(C(=O)O)CC4)cc3)nc2)cc1 [Compound 448]
EC50 [1]: < 800 nM
